Results reported in US20170348337A1, “MULTIFUNCTIONAL MEMBRANE-ACTIVE AMINOGLYCOSIDE-PEPTIDE CONJUGATES” (priority 2014, published 2017).
≈ marks a conversion by molar mass, not a printed value. Read-outs that look alike come from different tables or passages of the source.

Legend:
S. aureus = assay: antimicrobial activity (MIC) of P-L-A conjugates; format: cell-based
E. coli [1] = assay: microbe, parasite or virus in culture; format: cell-based; settings: Escherichia coli
Description: (§1) Pentobra was screened against a broad panel of microbial pathogens, including strains of E. coli, MRSA, Klebsiella (Kleb), Acinetobacter (AcB), Vancomycin-Sensitive Enterococci (VSE) and Vancomycin-Resistant Enterococci (VRE), and specifically including E. faecalis samples. […] The experimenter reported the minimum inhibitory concentration (MIC) in mass units per unit volume (μg/mL) for each compound, and MIC data were converted into molar concentrations (μM) due to the large difference between the molecular weight of tobramycin (467.5 g/mol) and Pentobra (2277 g/mol).

Klebsiella (Kleb) = assay: microbe, parasite or virus in culture; format: cell-based; settings: Klebsiella; isolate Kleb, W6921701-1; read-out: MIC
Description: as §1

Acinetobacter (AcB) = assay: microbe, parasite or virus in culture; format: cell-based; settings: Acinetobacter; isolate AcB, PM1434; read-out: MIC
Description: as §1

MRSA = assay: microbe, parasite or virus in culture; format: cell-based; settings: isolate MRSA
Description: as §1

[2] = tested on: Vancomycin-Resistant Enterococci (VRE); assay: microbe, parasite or virus in culture; format: cell-based; settings: Enterococcus, read-out: MIC
Description: as §1

[3] = tested on: P. acnes clinical isolates; assay: P. acnes CFU assay, clinical isolates; format: cell-based, Propionibacterium acnes
[4] = tested on: P. acnes laboratory strain ATCC 6919; assay: P. acnes CFU assay, laboratory strain; format: cell-based, Propionibacterium acnes
[5] = tested on: MCP-1, MDC, IP-10 and IL-12p40 in human monocytes; assay: chemokine/cytokine gene expression in P. acnes-stimulated monocytes (real-time PCR); format: cell-based; settings: 24 hrs co-treatment
Description: (§2) Peripheral blood mononuclear cells (PBMCs) were isolated from whole blood of normal healthy donors as approved by the Institutional Review Board at UCLA using Ficoll-Paque gradients (GE Healthcare, Piscataway, N.J.) and plated onto six-well tissue culture plates (20×10^6-30×10^6 per well) for 2 hours in RPMI 1640 medium (Invitrogen Life Technologies, Carlsbad, Calif.) supplemented with 1% fetal calf serum (Omega Scientific, Tarzana, Calif.). Nonadherent cells were removed by rigorously washing three times with RPMI. Adherent monocytes were stimulated (co-treated) with media or P. acnes in the presence of tobramycin or Pentobra in 10% fetal calf serum. P. acnes was used at an MOI of 0.5 and cells were cultured for 24 hours at 37° C.
Monocytes were stimulated with media or P. acnes in the presence of tobramycin or Pentobra. Total RNA was isolated using Trizol reagent (Invitrogen, Carlsbad, Calif.) following manufacturer's protocol and treated with RNase-free DNase. RNA concentration and quality were determined by spectrophotometry. RNA samples were reverse-transcribed to cDNA using iScript cDNA synthesis kit (Bio-Rad, Hercules, Calif.). Reactions were done at 25° C. for 5 minutes, 42° C. for 30 minutes and 85° C. for 5 minutes. Real-time PCR was applied using iQ SYBR Green supermix (Bio-Rad). Forty cycles were carried out at 95° C. for 5 minutes, then 95° C. for 10 seconds, 55° C. for 20 seconds, 72° C. for 20 seconds. GAPDH was used as a control. Gene expression level was quantified by the comparative method 2-ΔΔCT.
(§3) Monocytes were cultured and evaluated for cytokine and chemokine expression by ELISA and real time PCR after 24 hrs.

[6] = tested on: Vancomycin-Sensitive Enterococci (VSE); assay: organism not typed; format: cell-based; settings: read-out: MIC
Description: as §1

[7] = aminoglycosides; cited from earlier work
E. coli [8] = assay: antimicrobial activity (MIC) of P-L-A conjugates; format: cell-based
[9] = tested on: IL-6, IL-8, TNF-α and IL-12p40 in human monocytes; assay: cytokine ELISA in P. acnes-activated monocytes; format: cell-based; settings: 24 hrs co-treatment
Description: as §2
IL-6, IL-8, Tumor necrosis factor alpha (TNF-α) and IL-12p40 levels in culture supernatants were measured by ELISA following the manufacturer's recommendations (Invitrogen). Samples were assayed in triplicates. Results are expressed as mean±SD of at least three independent experiments, with monocytes obtained from three independent donors.
as §3

[10] = tested on: bioluminescent Staphylococcus aureus; assay: in vivo murine implantation (implant infection) model; parameters: species or system lysEGFP mice; settings: PMMA-coated titanium disks, subcutaneous; throughout 5 days; p<0.05
Description: Methods: Survival surgery was performed in which circular orthopedic-grade titanium disks were implanted subcutaneously on the backs of 25 lysEGFP mice. Disks were coated in poly-methyl-methacrylate (PMMA) cement mixed with either Pentobra, Tobramycin, or no antibiotic (control). The disks were inoculated with 1×10^7 colony-forming units (CFU) of bioluminescent Staphylococcus aureus. Bacterial burden and neutrophil inflammation were followed via bioluminescent and fluorescent imaging, respectively, on post-operative days (POD) 0, 1, 3, and 5. Implants and surrounding tissue were subsequently removed and cultured. Statistical assessment of data was performed via ANOVA analysis.

P. aeruginosa = assay: antimicrobial activity (MIC) of P-L-A conjugates; format: cell-based

NC[C@H]1O[C@H](O[C@H]2[C@H](O)[C@@H](O[C@H]3O[C@H](CO)[C@@H](O)[C@H](N)[C@H]3O)[C@H](N)C[C@@H]2N)[C@H](N)C[C@@H]1O [tobramycin]
MIC (μM) S. aureus (mid-log) (S. aureus): 3.12 μM
MIC (E. coli [1]; ATCC25922, isolate ATCC 25922, Ecoli (second entry), read-out: MIC): 2 µM (≈ 0.935 µg/mL)
MIC (E. coli [1]; isolate ATCC Ecoli, 25922 (first entry)): 2 µM (≈ 0.935 µg/mL)
MIC (E. coli [1]; isolate Ecoli,YD461, read-out: MIC): 34 µM (≈ 15.9 µg/mL)
MIC (Klebsiella (Kleb)): 68 µM (≈ 31.8 µg/mL)
MIC (Acinetobacter (AcB)): 34 µM (≈ 15.9 µg/mL)
MIC (MRSA; Staphylococcus aureus, F2806774, read-out: MIC): > 274 µM
MIC (MRSA; H2867813): >274 µM
MIC ([2]; VRE, isolate F6541102, VRE): > 274 µM
MIC ([2]; VRE, isolate H6926031, VRE*): 68 µM (≈ 31.8 µg/mL)
MIC ([2]; VRE, isolate M6865034, VRE): > 274 µM
MIC ([2]; VRE, isolate S3899836, VRE^? (second entry)): > 274 µM
MIC ([2]; VRE, isolate VRE, 24670): > 274 µM
MIC ([2]; VRE, isolate VRE, S3899836): > 274 µM
MIC ([2]; isolate 24670, VRE^? (second entry)): > 274 µM
antimicrobial activity ([3]; isolates HL063PA2, HL110PA1, HL110PA4): did not exhibit significant antimicrobial activity
bactericidal activity ([3]; strain HL005PA1): strongly bactericidal
activity compared with Pentobra ([3]; strains HL053PA2 and HL043PA1): significantly less active
killing activity [4]: not strongly bactericidal
reduction in CFU ([4]; 52 μM, 3 h): less than ten
inhibition of IL-12p40 gene expression [5]: little to no inhibition
inhibition of MCP-1 expression, comparison of the antibiotics [5]: more effective
P. acnes-induced IP-10 expression ([5]; p<0.001): completely abrogated
MIC ([6]; isolate S4895552, VSE, LZD-R): > 274 µM
MIC ([6]; isolate W7171143,VSE): 68 µM (≈ 31.8 µg/mL)
MIC ([6]; isolate W7214342,VSE): > 274 µM
MIC ([6]; isolate X4540299, VSE): 34 µM (≈ 15.9 µg/mL)
octanol→water partition coefficient Log P [7]: −3.41
MIC (μM) E. coli (mid-log) (E. coli [8]): 6.25 μM
change in IL-6, IL-8, TNF-α and IL-12p40 cytokine production [9]: no significant change
bacterial bioluminescent signal compared to control group [10]: significantly lower bacterial bioluminescent signal
MIC (P. aeruginosa; Pseudomonas aeruginosa, read-out: MIC (μM) P. aeruginosa (stationary)): 6.25 µM (≈ 2.92 µg/mL)
MIC (μM) P. aeruginosa (mid-log) (P. aeruginosa; mid-log): 0.78-3.12 μM
